The record followed here is patent publication US20200254065A1, “LONG-ACTING GLP-2 ANALOGS” (OPKO Biologics Ltd., priority 2019, published 2020).

Data set [1] can be described thus: Pharmacokinetics of modified GLP-2 variants in rats. As to conditions: rat, serum, peptide dose 15 mg/kg. Format: in vivo.
A short description of data set [2]: Solubility and stability in different buffer systems, concentrations, incubation and freeze-thaw. The format is physicochemical. As to conditions: Histidine and NaPi, pH 6.8 to 7.5; 1-10 mg/mL; up to 3 days at 37° C.; up to three freeze-thaw cycles.
Data set [3] in a line: Stability of GLP-2 analogues on incubation at 37° C. (appearance, O.D. reading, RP-HPLC). Format: physicochemical. To be noted: following 48 h incubation at 37° C. Here is the method: The GLP-2 analogues were tested for stability via appearance, O.D. reading (A.280, and A.325) and RP-HPLC (purity, and peak area) following t=0, 1 day, and 48 h incubation at 37° C.
Data set [4] deals with intestine epithelium (crypts plus villi). As to the kind of experiment: Crypts plus villi length, histopathology of small intestine. Format: in vivo, SD rats. The method, then: In addition to PEG30-FMS-V4 and PEG30-Fmoc-V4 that have been pharmacology evaluated by small intestinal weight evaluation (As shown in Example 5), four other reversible PEGylated variant 4 (“V4”) conjugates and two reversible linker-V4 conjugates were synthesized. All the above were injected to 6 normal SD rats/group once at 2 mg/kg (peptide dose), while on the 6th day, animals were scarified, and the small intestine was weighted followed by histopathology evaluation. […] Therefore, slices from three areas of the intestine (duodenum, jejunum and ilium) were stained with hematoxylin and eosin and at least 7 Crypts+Villi length/slice were measured. The averaged Villi+Crypt length of each treatment group (n=6) was compared to the vehicle group (negative control) and calculated as percentage increase over vehicle. […]
An additional study to evaluate the efficacy and the longevity of V4 and Cys-FMS-V4 was conducted (Study reference 15204) in which the animals were sacrificed on Days 6 (N=6), 10 (N=4) and 14 (N=4). This experiment measured the pharmacological response compared to the commercially approved SBS treatment drug Gattex. In addition, two new conjugates were tested by conjugating V4 to reduced OSu-linker and Cys-FMS-V4 purified from resin. The animals were injected with a single SC injection at Day 1 with 2 mg/kg peptide content of V4, Cys-FMS-V4, FMS-OSu-V4, Apraglutide and Glepaglutide while Gattex was SC injected daily at 2.5 mg/kg peptide content. […]

The target of another data set is T1, GLP-2 receptor (Homo sapiens, UniProt O95838).
T1 sequence (O95838 1-553): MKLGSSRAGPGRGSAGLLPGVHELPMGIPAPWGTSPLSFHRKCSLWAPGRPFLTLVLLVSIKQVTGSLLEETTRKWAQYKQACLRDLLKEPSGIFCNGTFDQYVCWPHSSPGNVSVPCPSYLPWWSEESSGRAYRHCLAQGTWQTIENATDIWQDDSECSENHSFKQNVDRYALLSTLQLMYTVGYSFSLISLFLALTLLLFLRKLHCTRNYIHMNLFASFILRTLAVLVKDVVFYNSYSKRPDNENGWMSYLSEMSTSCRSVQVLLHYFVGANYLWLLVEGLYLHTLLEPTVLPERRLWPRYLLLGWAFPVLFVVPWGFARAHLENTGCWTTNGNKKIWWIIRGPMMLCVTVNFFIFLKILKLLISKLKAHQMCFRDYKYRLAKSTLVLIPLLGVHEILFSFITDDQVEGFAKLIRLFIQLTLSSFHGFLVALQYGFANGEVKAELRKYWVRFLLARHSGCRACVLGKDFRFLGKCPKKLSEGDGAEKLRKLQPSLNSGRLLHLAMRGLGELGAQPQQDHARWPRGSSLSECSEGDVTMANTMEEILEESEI
As to the kind of experiment: GLP-2 receptor Cell Based Assay (CBA).

Data set [5] is described as follows: PK after single IV injection in rats. The format is in vivo. As to conditions: rat, in vivo, iv, 2 mg/kg. The source says:
Blood samples were collected at 0.5, 2, 4, 8, 12, 24, 36, 48, 72, 96- and 120-hours post-dose administration.

The structures appear in SMILES notation. “Also recorded” adds a separate entry of the source. Square brackets hold non-standard residues; d marks the D form. Peptide text beside a SMILES is read from it. Nle = CCCC[C@H](N)C(=O)O

Experimental for GLP-2 receptor: Evaluation of in vitro binding affinity of the different peptides was assessed by using Cell Based Assay (CBA) in the presence of escalating doses of the different peptides.

As to `CCCC[C@H](NC(=O)[C@H](CCC(=O)O)NC(=O)[C@H](CC(=O)O)NC(=O)[C@H](CO)NC(=O)[C@H](Cc1ccccc1)NC(=O)[C@H](CO)NC(=O)CNC(=O)[C@H](CCC(=O)O)NC(=O)CNC(=O)[C@@H](N)Cc1c[nH]cn1)C(=O)N[C@@H](CC(N)=O)C(=O)N[C@H](C(=O)N[C@H](C(=O)N[C@@H](CC(C)C)C(=O)N[C@@H](CC(=O)O)C(=O)N[C@@H](CC(C)C)C(=O)N[C@@H](CC(C)C)C(=O)N[C@@H](C)C(=O)N[C@@H](C)C(=O)N[C@@H](CCCNC(=N)N)C(=O)N[C@@H](CC(=O)O)C(=O)N[C@@H](Cc1ccccc1)C(=O)N[C@H](C(=O)N[C@@H](CC(N)=O)C(=O)N[C@@H](Cc1c[nH]c2ccccc12)C(=O)N[C@@H](CC(C)C)C(=O)N[C@H](C(=O)N[C@@H](CCC(N)=O)C(=O)N[C@H](C(=O)N[C@@H](CCCCN)C(=O)N[C@H](C(=O)N[C@H](C(=O)N[C@@H](CC(=O)O)C(N)=O)[C@@H](C)O)[C@@H](C)CC)[C@@H](C)O)[C@@H](C)CC)[C@@H](C)CC)[C@@H](C)CC)[C@@H](C)O` [Variant 4] (H-HGEGSFSDE[Nle]NTILDLLAARDFINWLIQTKITD-NH2), the half-life in data set [1] was 17.5 h. Also, the “CMC perspective, combining purity and solubility” value in data set [2] is on record as “outperformed the rest of the peptides”. In addition, in data set [3], the Solubility via appearance result is on record as “V4: clear”. Besides, the “Percent increase of Crypts+Villi length over vehicle (FIG. 3)” value in data set [4] (Study 15201, 0.5 and 2 mg/kg peptide dose once, 6 days after injection) is “dose dependent pharmacology effect on the intestine epithelium”. In data set [4] (Study 15203, single SC 2 mg/kg on Day 1, Days 6 and 10, listed as V4, 2 mg/kg), the “Crypts plus villi length percent increase over vehicle (FIG. 13)” value was “the most pronounced effect on crypts plus villi length over vehicle compared to Apraglutide and Glepaglutide; also recorded: prolonged activity 10 days following a single SC injection”. Moreover, the “Crypts plus villi length percent increase over vehicle (FIG. 14)” value in data set [4] (Study 15204, single SC 2 mg/kg on Day 1, Days 6, 10 and 14) is “the most prominent and prolonged effect on villi and crypts length up to 14 days from injection”. Further, in data set [4] (Study 15205, single SC 0.5, 2.0 or 8.0 mg/kg, Days 3, 7 and 14), the “Villi plus crypts length percent increase over vehicle (FIG. 16)” value was “comparable intestinotrophic response on villi and crypt length at all three dose levels”. The “EC50 Ratio to Teduglutide” value at GLP-2 receptor (Table 7) turned out to be 3.8. Also, at GLP-2 receptor (Table 8, average of 3 independent CBA), the “EC50 Ratio to Teduglutide” value amounted to 1.8. In data set [5], the AUC(0-inf) stood at 36.2 µM·h, the AUC(0-t) stood at 33.7 µM·h, the Cl/F_obs was 0.015 (μmol/kg)/(μmol/L)/h and the Cmax came out at 7.1 µM. In data set [5], the “Detectability in blood after IV administration” value is given as “could not be detected 24 hours post injection”, the Tmax worked out at 0.5 h, the Vz/F_obs is given as 0.068 (μmol/kg)/(μmol/L) and the half-life was 3.2 h.

Usually half-life stands for the time needed for the level to fall by half in the phase considered. As a reminder, the AUC(0-inf) is total exposure, with the tail of the curve extrapolated. Higher therefore signals more exposure. For orientation: AUC(0-t) means exposure summed from dosing to a finite time, without extrapolation to infinity. Higher therefore signals more exposure. The term Cmax denotes the maximum level reached in the sampled fluid or tissue. By Tmax is commonly meant the time from dosing to the highest level.
